Measurements: patent US9012407B2, “Therapies which act on neuropeptide S receptors” (The Regents of the University of California, priority 2004, dated 2015)

Key:
Sprague-Dawley rats = experiment: Sleep-wake EEG/EMG recording after i.c.v. administration in rats; type: in vivo; settings: for share of first hour of recording spent in wakefulness: saline 45%
Experimental: Rats were implanted with a standard set of electrodes and electroencephalograms (EEG) and electromyograms (EMG) were recorded after i.c.v. administration of NPS. Polygraphic recordings of vigilance states indicate that rats treated with 0.1 nmole and 1.0 nmole of NPS spent up to 69% and 87%, respectively, of the first hour of recording in wakefulness, compared to 45% for saline treatment (F2,21=16.80; p<0.01) (FIG. 7B).
For sleep studies, adult male Sprague-Dawley rats (250-300 g) were implanted under halothane anesthesia (1-2%) with a stainless steel cannula for i.c.v. administration and a standard set of stainless steel screw electrodes for chronic sleep recordings as reported previously (Bourgin et al., 2000). Rats were injected with NPS or vehicle (5 μl) at the beginning of the light cycle and cortical activity was recorded over 6 hours. All animal experiments had been approved by the local IACUC committee and were done in accordance with federal regulations and guidelines on animal experimentation.

C57Bl/6 mice [1] = experiment: Open field test; type: in vivo; settings: naive mice, i.c.v.
Experimental: Naïve mice were tested in the open field, a paradigm of free exploratory behavior in a novel environment. […] In order to further study NPS effects on stress as it relates to anxiety, two additional tests were performed that are based on the natural aversion of rodents to open or unprotected spaces: the light-dark box and the elevated plus maze (FIG. 8B, C).
Male C57Bl/6 mice (National Cancer Institute, Bethesda, MD), age 10-14 weeks, were group-housed (4 animals per cage) under controlled conditions (temperature 21±2° C.; relative humidity 50-60%; 12-hour light-dark cycle, lights on 6:00 AM) with free access to food and water. Prior to drug injections, mice were briefly anesthetized with halothane. NPS was dissolved in phosphate-buffered saline (PBS, pH 7.4) and injected i.c.v. (total volume: 2 μl) as described before (Laursen and Belknap, 1986). […]
(§1) Locomotion was monitored in rectangular plexiglass boxes (60×40×50 cm). Horizontal activity was measured over 60 min by 18×12 infrared sensors placed 2 cm above the floor. […] Marble burying was measured in mice placed individually in polypropylene cages (30×18×12 cm) containing 18 glass marbles (1.5 cm diameter) evenly spaced on 5 cm deep rodent bedding (bed-o'cob, The Andersons Inc., Maumee, Ohio) (Njung'e and Handley, 1991). […] Cages were covered with a metal grid and the number of marbles covered at least two-thirds was counted after 30 min.

C57Bl/6 mice [2] = experiment: Light-dark box; type: in vivo
Experimental: (§2) Male C57Bl/6 mice (National Cancer Institute, Bethesda, MD), age 10-14 weeks, were group-housed (4 animals per cage) under controlled conditions (temperature 21±2° C.; relative humidity 50-60%; 12-hour light-dark cycle, lights on 6:00 AM) with free access to food and water. Prior to drug injections, mice were briefly anesthetized with halothane. NPS was dissolved in phosphate-buffered saline (PBS, pH 7.4) and injected i.c.v. (total volume: 2 μl) as described before (Laursen and Belknap, 1986). Mice were allowed to recover for 5 min and then placed in the observation apparatus.
(§3) Locomotion was monitored in rectangular plexiglass boxes (60×40×50 cm). Horizontal activity was measured over 60 min by 18×12 infrared sensors placed 2 cm above the floor. A second row of sensors at 8 cm above the floor was used to record rearing events. The imaginary central zone was defined as a 30×20 cm rectangle in the middle of each observation area. Data were collected using MatLab (Mathworks, Natick, Mass.). Experimental procedures for open field, elevated plus-maze and light-dark box were described previously (Köster et al., 1999). Marble burying was measured in mice placed individually in polypropylene cages (30×18×12 cm) containing 18 glass marbles (1.5 cm diameter) evenly spaced on 5 cm deep rodent bedding (bed-o'cob, The Andersons Inc., Maumee, Ohio) (Njung'e and Handley, 1991). No food or water was present during the observation period. Cages were covered with a metal grid and the number of marbles covered at least two-thirds was counted after 30 min.

C57Bl/6 mice [3] = experiment: Elevated plus maze; type: in vivo
Experimental: as §2, §3

C57Bl/6 mice [4] = experiment: Marble-burying paradigm; type: in vivo; settings: 30 min observation, 18 marbles per cage, i.c.v.
Excerpt: Many anxiolytic drugs increase exploratory activity in the open field, light-dark box or elevated plus maze paradigms. However, compounds stimulating locomotion could produce false-positive effects in these tests because the enhanced exploration could be secondary to the increase in general activity. In order to validate the observed anxiolytic-like effects of NPS, we tested increasing doses of NPS in the marble-burying paradigm. Mice tend to bury objects such as glass marbles present in their environment. Anxiolytic drugs such as benzodiazepines reduce the number of marbles buried over a fixed period of time. […]
as §1

NPSR C-alt = target: T1, NPSR C-alt (Homo sapiens, UniProt Q6W5P4); experiment: CRE-luciferase reporter gene assay, HEK 293 cells, NPSR C-alt; type: cell-based; settings: transiently transfected HEK cells; read-out: EC50, luciferase reporter induction
T1 construct: The C-terminal splice variant of NPSR (NPSR C-alt, GPRA isoform B); expressed in transfected cells; host or cells: HEK 293 cells carrying the CRE-luciferase reporter, transient transfection, pcDNA3.1 hygro
T1 sequence (Q6W5P4 1-377 isoform Q6W5P4-4): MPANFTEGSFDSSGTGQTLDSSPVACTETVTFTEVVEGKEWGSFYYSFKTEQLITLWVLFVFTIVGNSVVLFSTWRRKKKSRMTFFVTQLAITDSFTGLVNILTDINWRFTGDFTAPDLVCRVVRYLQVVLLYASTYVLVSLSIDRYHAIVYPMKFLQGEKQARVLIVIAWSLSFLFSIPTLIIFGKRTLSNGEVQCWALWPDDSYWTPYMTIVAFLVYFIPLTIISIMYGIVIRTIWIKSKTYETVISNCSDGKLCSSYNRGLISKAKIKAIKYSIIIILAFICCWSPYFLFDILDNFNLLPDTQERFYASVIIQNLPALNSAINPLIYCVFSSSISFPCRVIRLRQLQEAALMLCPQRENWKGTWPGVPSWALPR
Excerpt: HEK 293 cells were stably transfected with a reporter gene containing 6 copies of a cAMP response element (CRE; sequence […]) in front of a luciferase reporter gene (Promega) cloned into pcDNA3.1 neo. One stable clone showing robust induction of reporter gene expression after forskolin challenge was chosen for further experiments. The different NPSR isoform cDNAs (cloned into pcDNA3.1 hygro) were transfected into these cells using lipofectamine and stable clones were selected. The same cells and procedures were also used for transient transfection. For induction of reporter gene expression cells were plated in 96-well plates and incubated with agonist for 5 hours in serum-free medium, followed by aspiration of the medium and cell lysis with 25 mM Tris-phosphate, pH 7.8, 2 mM dithiothreitol, 2 mM 1,2-diaminocyclohexane-N,N,N′,N′,-tetraacetic acid, 10% glycerol, 1% Triton X-100. After one freeze-thaw cycle aliquots of supernatant were transferred to white clear-bottom 96-well plates (Greiner) and luciferase content was quantified by bioluminescence (Luc-Screen, Applied Biosystems). Plates were counted in a scintillation counter using bioluminescence settings (MicroBeta, Wallac-Perkin Elmer).

[5] = i.c.v., rats, compared with saline

Substance: NPS: neuropeptide S, endogenous NPSR ligand; species of the peptide not stated at the place of the result (SFRNGVGTGMKKTSFQRAKS)
- share of first hour of recording spent in wakefulness (Sprague-Dawley rats; 0.1 nmole i.c.v., rats): up to 69%
- share of first hour of recording spent in wakefulness (Sprague-Dawley rats; 1.0 nmole i.c.v., rats): ≤ 87%
- rebound in amount of non-REM sleep, increase vs. saline (Sprague-Dawley rats; fourth hour post injection, rats): 48%
- mean duration of wakefulness episodes (Sprague-Dawley rats; i.c.v., rats, compared to saline group): significant increase
- amount of REM sleep (Sprague-Dawley rats; [5]): significantly reduced
- amount of slow wave sleep stage 1 (SWS1) (Sprague-Dawley rats; [5]): significantly reduced
- amount of slow wave sleep stage 2 (SWS2) (Sprague-Dawley rats; [5]): significantly reduced
- rebound in amount of non-REM sleep, increase vs. saline (Sprague-Dawley rats; second hour post injection, rats): 20%
- duration of arousal effect (Sprague-Dawley rats; single i.c.v. administration): within the first hour post injection
- number of entries in the central zone (C57Bl/6 mice [1]; first 10 minutes): significantly increased
- ambulations in the outer zones of the open field (C57Bl/6 mice [1]; same doses): increased
- percentage of entries in the light area (C57Bl/6 mice [2]; 0.03-3 nmole i.c.v.): higher percentage
- time in the light area (C57Bl/6 mice [2]; 0.03-3 nmole i.c.v.): prolonged time
- number of transitions between the two compartments (C57Bl/6 mice [2]; 0.1-3 nmole i.c.v.): significantly increased
- latency until first exit from the dark compartment (C57Bl/6 mice [2]; 0.3-3 nmole i.c.v.): significantly reduced
- number of transitions from closed to open arms (C57Bl/6 mice [3]; 0.1 and 1 nmole i.c.v.): higher number of transitions
- time on the open arms (C57Bl/6 mice [3]; 0.1 and 1 nmole i.c.v.): significantly more time
- closed-closed transitions (general activity) (C57Bl/6 mice [3]; all doses i.c.v.): did not reach statistical significance
- number of marbles buried (C57Bl/6 mice [4]): dose-dependently reduced
- EC50 (NPSR C-alt): 0.146 ± 0.0151 µM
